Reference: US10377778B2, “Lead and thorium compounds” (Sciencons AS, priority 2017, dated 2019)

Test system: PSMA-positive xenografts
Test: Biodistribution of single targeting solution (purified ^212Pb-ligand) in mice with PSMA-positive xenografts
Assay type: in vivo
Experimental: Using a ^212Pb/^224Ra solution for reaction with p-SCN-Bn-TCMC-PSMA ligand 1 as described, purified ^212Pb-p-SCN-Bn-TCMC-PSMA ligand 1 was purified using a Sephadex G-10 gel filtration column and about 30 kBq and 300 ng of the purified radioligand product was injected per animal. […] The tumor-to-tissue ratios (Table 4) indicates suitability for radioligand targeting with ^212Pb.

NC(=O)CN1CCN(CC(N)=O)CCN(CC(N)=O)C(Cc2ccc(NC(=S)NCC3CCC(C(=O)NC(Cc4ccc5ccccc5c4)C(=O)NCCCCC(NC(=O)NC(CCC(=O)O)C(=O)O)C(=O)O)CC3)cc2)CN(CC(N)=O)CC1.[212Pb+2] (stereo not drawn) [^212Pb-p-SCN-Bn-TCMC-PSMA ligand 1]
Tumor/Femur ratio (1 h): 30.4 | Tumor/blood ratio (1 h): 14.9 | Tumor/kidneys ratio (1 h): 0.41 | Tumor/muscle ratio (1 h): 42.6 | Tumor/Femur ratio (2 h): 39.7 | Tumor/blood ratio (2 h): 29.4 | Tumor/kidneys ratio (2 h): 0.62 | Tumor/muscle ratio (2 h): 72.1 | Tumor/Femur ratio (4 h): 24.8 | Tumor/blood ratio (4 h): 30.7 | Tumor/kidneys ratio (4 h): 1.54 | Tumor/muscle ratio (4 h): 61.5 | Tumor/Femur ratio (8 h): 19.8 | Tumor/blood ratio (8 h): 112.7 | Tumor/kidneys ratio (8 h): 3.60 | Tumor/muscle ratio (8 h): 366.2 | Biodistribution, Bladder (1 h post injection): 36.86 % ID/g | Biodistribution, Bladder (2 h post injection): 6.85 % ID/g | Biodistribution, Bladder (4 h post injection): 3.53 % ID/g | Biodistribution, Bladder (8 h post injection): 0.26 % ID/g | Biodistribution, Blood (1 h post injection): 1.77 % ID/g | Biodistribution, Blood (2 h post injection): 0.54 % ID/g | Biodistribution, Blood (4 h post injection): 0.46 % ID/g | Biodistribution, Blood (8 h post injection): 0.13 % ID/g | Biodistribution, Brain (1 h post injection): 0.61 % ID/g | Biodistribution, Brain (2 h post injection): 0.04 % ID/g | Biodistribution, Brain (4 h post injection): 0.07 % ID/g | Biodistribution, Brain (8 h post injection): 0.02 % ID/g | Biodistribution, Femur (1 h post injection): 0.87 % ID/g | Biodistribution, Femur (2 h post injection): 0.40 % ID/g | Biodistribution, Femur (4 h post injection): 0.57 % ID/g | Biodistribution, Femur (8 h post injection): 0.74 % ID/g | Biodistribution, Heart (1 h post injection): 0.78 % ID/g | Biodistribution, Heart (2 h post injection): 0.20 % ID/g | Biodistribution, Heart (4 h post injection): 0.52 % ID/g | Biodistribution, Heart (8 h post injection): 0.09 % ID/g | Biodistribution, Kidneys (1 h post injection): 63.96 % ID/g | Biodistribution, Kidneys (2 h post injection): 25.41 % ID/g | Biodistribution, Kidneys (4 h post injection): 9.19 % ID/g | Biodistribution, Kidneys (8 h post injection): 4.07 % ID/g | Biodistribution, Large intestine (1 h post injection): 0.25 % ID/g | Biodistribution, Large intestine (2 h post injection): 0.39 % ID/g | Biodistribution, Large intestine (4 h post injection): 0.18 % ID/g | Biodistribution, Large intestine (8 h post injection): 0.17 % ID/g | Biodistribution, Liver (1 h post injection): 2.39 % ID/g | Biodistribution, Liver (2 h post injection): 1.33 % ID/g | Biodistribution, Liver (4 h post injection): 1.55 % ID/g | Biodistribution, Liver (8 h post injection): 1.25 % ID/g | Biodistribution, Lungs (1 h post injection): 1.19 % ID/g | Biodistribution, Lungs (2 h post injection): 0.40 % ID/g | Biodistribution, Lungs (4 h post injection): 0.75 % ID/g | Biodistribution, Lungs (8 h post injection): 0.17 % ID/g | Biodistribution, Muscle (1 h post injection): 0.62 % ID/g | Biodistribution, Muscle (2 h post injection): 0.22 % ID/g | Biodistribution, Muscle (4 h post injection): 0.23 % ID/g | Biodistribution, Muscle (8 h post injection): 0.04 % ID/g | Biodistribution, Prostate (1 h post injection): 13.95 % ID/g | Biodistribution, Prostate (2 h post injection): 3.80 % ID/g | Biodistribution, Prostate (4 h post injection): 1.48 % ID/g | Biodistribution, Prostate (8 h post injection): −0.10 % ID/g | Biodistribution, Salivary gland (1 h post injection): 0.72 % ID/g | Biodistribution, Salivary gland (2 h post injection): 0.32 % ID/g | Biodistribution, Salivary gland (4 h post injection): 0.34 % ID/g | Biodistribution, Salivary gland (8 h post injection): 0.15 % ID/g | Biodistribution, Skin (1 h post injection): 1.70 % ID/g | Biodistribution, Skin (2 h post injection): 0.47 % ID/g | Biodistribution, Skin (4 h post injection): 0.42 % ID/g | Biodistribution, Skin (8 h post injection): 0.23 % ID/g | Biodistribution, Skull (1 h post injection): 0.77 % ID/g | Biodistribution, Skull (2 h post injection): 0.38 % ID/g | Biodistribution, Skull (4 h post injection): 0.37 % ID/g | Biodistribution, Skull (8 h post injection): 0.63 % ID/g | Biodistribution, Small intestine (1 h post injection): 0.34 % ID/g | Biodistribution, Small intestine (2 h post injection): 0.23 % ID/g | Biodistribution, Small intestine (4 h post injection): 0.30 % ID/g | Biodistribution, Small intestine (8 h post injection): 0.08 % ID/g | Biodistribution, Spleen (1 h post injection): 1.24 % ID/g | Biodistribution, Spleen (2 h post injection): 0.44 % ID/g | Biodistribution, Spleen (4 h post injection): 0.54 % ID/g | Biodistribution, Spleen (8 h post injection): 0.36 % ID/g | Biodistribution, Stomach (1 h post injection): 0.16 % ID/g | Biodistribution, Stomach (2 h post injection): 0.22 % ID/g | Biodistribution, Stomach (4 h post injection): 0.10 % ID/g | Biodistribution, Stomach (8 h post injection): 0.09 % ID/g | Biodistribution, Testes (1 h post injection): 4.41 % ID/g | Biodistribution, Testes (2 h post injection): 0.56 % ID/g | Biodistribution, Testes (4 h post injection): 0.38 % ID/g | Biodistribution, Testes (8 h post injection): 0.12 % ID/g | Biodistribution, Tumor (1 h post injection): 26.44 % ID/g | Biodistribution, Tumor (2 h post injection): 15.87 % ID/g | Biodistribution, Tumor (4 h post injection): 14.14 % ID/g | Biodistribution, Tumor (8 h post injection): 14.65 % ID/g | Biodistribution, Urine (1 h post injection): 253.36 % ID/g | Biodistribution, Urine (2 h post injection): 250.85 % ID/g | Biodistribution, Urine (4 h post injection): 32.12 % ID/g | Biodistribution, Urine (8 h post injection): 6.76 % ID/g
